Assay results as given in a melting point compilation (Tetko et al.).

Row | Structure (SMILES) | melting point [°C]
1 | CC(=O)c1ccc(-c2cccs2)s1 | 109 to 114
2 | COC(=O)c1cc(C(=O)OC)cc([N+](=O)[O-])c1 | 122
3 | Cc1nn(-c2ccccc2)c2oc3sccc3c(=S)c12 | 194 to 196
4 | NN=C1c2ccccc2-c2ccccc21 | 152
5 | Cc1cccc(C(=O)Cl)c1C | 2
6 | O=C(Cl)c1nccs1 | 54 to 58
7 | N#CCc1ccccc1C#N | 73 to 79
8 | Cc1ccc2[nH]c(S)nc2c1 | 290 to 293
9 | N#C/C(=C/c1ccco1)c1nc(-c2ccc(Br)cc2)cs1 | 174
10 | O=C(Nc1ccc(Br)cc1)c1c(O)cccc1O | 229
11 | O=C(c1ccc(C(=O)C(Cl)(Cl)Cl)cc1)C(Cl)(Cl)Cl | 121
12 | N#Cc1ccc(S(N)(=O)=O)cc1 | 170
13 | CCCCCCCCCCCCCCc1ccccc1 | 16
14 | Nc1cccnc1N1CCOCC1 | 127 to 128
15 | CCOC(=O)c1cc2ccccc2oc1=O | 94
16 | FC(F)C(F)C(F)(F)F (stereo not given) | -156
17 | CC(C)(C)c1cc(C=O)cc(C(C)(C)C)c1 | 82 to 87
18 | COC(=O)CCC(C)C1CCC2C3C=CC4CC(OC(C)=O)CCC4(C)C3CC(OC(C)=O)C12C (stereo not given) | 86.5 to 87.5
19 | Cc1ccc2cc(C)ccc2c1 | 112
20 | CN(C)C(=O)[C@@H]1OC(C)(C)O[C@H]1C(=O)N(C)C | 88 to 91
21 | CNc1ncnc(Cl)c1[N+](=O)[O-] | 134 to 139
22 | CCCCCCCCCC1CCCCC1 | -10
23 | CC(C)CCC(C)C | -91
24 | O=C1NC(=O)C(=Cc2ccc(-c3ccccc3)o2)C(=O)N1 | 270
25 | CC(C)(C)OC(=O)NCCCC(=O)O | 55
26 | Nc1nc(N)c2nc(-c3ccccc3)c(N)nc2n1 | 316

Row | Structure (SMILES) | melting point [°C]
27 | CN(C)c1ccc(C(C=C2C=Cc3ccccc3N2N=O)c2ccccc2)cc1 (stereo not given) | 196
28 | CC(C)(C)n1nc(-c2ccc(Cl)cc2)c(C#N)c1N | 154 to 155
29 | Nc1ccc(SC(F)(F)F)c(Cl)c1 | 43
30 | Cc1c(O)cccc1[N+](=O)[O-] | 150
31 | Nc1ccc(C(F)(F)F)cc1N | 56 to 58
32 | Nc1cc2c3ccccc3ccc2c2ccccc12 | 210
33 | CCOC(=O)c1csc(NC(=O)CCl)n1 | 208 to 210
34 | N#CC(CCN1CCC(C(N)=O)(N2CCCCC2)CC1)(c1ccccc1)c1ccccc1 | 150
35 | Nn1c(S)nnc1-c1ccc(Cl)cc1 | 320
36 | CC(C)(C)OC(=O)N1CCCC(=O)C1 | 38
37 | FC(F)(F)C(F)(F)C(F)(F)C(F)(F)C(F)(F)I | -50
38 | Cc1nnc2sc(SCC(=O)O)nn2c1=O | 201
39 | O=C1CC(=O)NC(=O)N1 | 248
40 | C=C1C2CC(CC2NS(=O)(=O)c2ccc(C)cc2)C1(C)C (stereo not given) | 110 to 114
41 | COC(=O)c1scc(C)c1N | 86 to 87
42 | Cc1c([N+](=O)[O-])cc(C(C)C)c(O)c1[N+](=O)[O-] | 55.5
43 | COc1cc(C=CC(=O)O)cc(OC)c1O | 203 to 205
44 | CC1(C)C(=O)N(O)C(C)(C)C(=O)N1O | 300 to 303
45 | CN(C)c1ccccc1-c1ccccc1P(C1CCCCC1)C1CCCCC1 | 123
46 | C[C@]12CCC(=O)C[C@@H]1CCC1=C2CC[C@@H]2C(=O)CC[C@H]12 | 137 to 138
47 | Cc1cc(C(F)(F)F)n2nc(N)c(/N=N/c3c(Cl)cc(Cl)cc3Cl)c2n1 | 189
48 | Cc1ccc2[nH]c3ccccc3c2c1 | 208
49 | CC(=O)c1cc(C#N)c(=O)[nH]c1C | 230 to 232
50 | Cc1c(Cl)cccc1Nc1ccccc1C(=O)O | 207
51 | CCOC(=O)CC(SP(=S)(OC)OC)C(=O)OCC (stereo not given) | 2.8
52 | Cc1c(Cl)cccc1Nc1ncccc1C(=O)O | 234

Row | Structure (SMILES) | melting point [°C]
53 | CCCCCCCOC(=O)CC | -50.9
54 | CSc1nc2nc(SC)n(C)c2c(=O)n1-c1ccc(F)cc1 | 177 to 179
55 | O=C(Nc1cc(C(F)(F)F)cc(C(F)(F)F)c1)c1cncc(Cl)n1 | 133
56 | CC(=O)c1ccc(Cl)c([N+](=O)[O-])c1 | 98
57 | CN1C(=O)c2ccc([N+](=O)[O-])cc2C1=O | 178 to 179
58 | Cc1ccc(C2C(C#N)=C(N)N3C(=C2C#N)Sc2ccccc23)cc1 (stereo not given) | 200 to 202
59 | Oc1ccc(C=Nc2ccccc2N=Cc2ccc(O)cc2O)c(O)c1 | 163 to 165
60 | O=Cc1ccc(O)c(Br)c1 | 127
61 | CC(C)(C)c1ccc(C(=O)c2ccccc2)cc1 | 40
62 | Nc1cc(-c2ccccc2)nn1-c1ccccc1 | 131
63 | CCCCCCSc1nc2ccc(NC(=O)COc3ccc(Cl)cc3Cl)cc2s1 | 105
64 | Fc1ccc(C(c2ccc(F)cc2)C(Cl)(Cl)Cl)cc1 | 44.5
65 | [O-][n+]1nc(-n2ccnc2)nc2ccc(Cl)cc21 | 182
66 | CCCCC(=O)OC1(C(=O)CO)CCC2C3CCC4=CC(=O)C=CC4(C)C3C(O)CC21C (stereo not given) | 212
67 | O=P(OC(Cl)CCCl)(OC(Cl)CCCl)OC(Cl)CCCl (stereo not given) | 26.7
68 | c1ccc2c(c1)ccc1ncccc12 | 94
69 | N[C@H](c1ccccc1)[C@@H](O)c1ccccc1 | 142 to 144
70 | COC(=O)c1ccc(C(=O)OC)o1 | 112
71 | Nc1nsc(-c2ccccc2)n1 | 136 to 138
72 | COc1ccc(C(F)(F)F)cc1N | 58
73 | CCCCCCCCCCCCCOCC1CO1 (stereo not given) | 1.6
74 | CCC(C(=O)O)C1(O)CCC(c2ccccc2)CC1 (stereo not given) | 157
75 | O=C(O)C=Cc1cccc(C(Br)=C(Br)C(=O)O)c1 | 214
76 | COc1ccc(C2CCCCC2)cc1N | 66 to 68
77 | C1=CCCC=CCC1 | -56.4
78 | CC(C)(C)OC(=O)C(C)(C)ON=C(C(=O)O)c1csc(N)n1 | 180

Row | Structure (SMILES) | melting point [°C]
79 | O=c1oc(=O)n(Cc2ccccc2)c2ccccc12 | 136 to 139
80 | O=C1CCC(c2ccccc2)O1 (stereo not given) | 36.5
81 | COc1ccc(NN=C2C(=O)NC(=O)NC2=O)cc1 | 264
82 | O=C(O)C1Cc2cc3c(cc21)OCO3 (stereo not given) | 150
83 | Cc1cccc2ccccc12 | 34
84 | O=C(O)C(c1ccccc1)(c1ccccc1)c1ccccc1 | 268 to 269
85 | C[C@@H]1CNCCN1 | 86 to 91
86 | OCC1CCCN2CCCCC12 (stereo not given) | 70
87 | Cc1ccccc1S(=O)(=O)Cl | 10
88 | Cc1ccc(-n2c(=O)cc(C)n2C)cc1 | 130 to 137
89 | O=Cc1cc(C=O)c(O)c(C=O)c1 | 179 to 180
90 | O=C(CI)OC(=O)CI | 43 to 49
91 | COC(=O)C=CC(C)=CC=CC(C)=CC=CC=C(C)C=CC=C(C)C=CC(=O)O | 198
92 | c1ccc(N2CCN(c3ccccc3)CC2)cc1 | 165
93 | CSc1nc(=O)n2ccccc2n1 | 150 to 151
94 | Cc1ccc(S(=O)(=O)CC(=O)c2ccccc2)cc1 | 109 to 110
95 | CCCOCOCCC | -97.3
96 | CCCCCCCCCCC(=O)OCC(COC(=O)CCCCCCCCCC)OC(=O)CCCCCCCCCC | 24 to 32
97 | Cc1ccc(F)cc1C(N)=O | 120 to 122
98 | Cc1ncc(C#N)c(N)n1 | 249 to 252
99 | O=C(C(=S)Nc1ccccc1Cl)c1ccccc1 | 119
100 | O=C(O)C1(C(=O)O)CCC1 | 157 to 161
101 | O=C(O)c1cnc(O)nc1-c1ccncc1 | 309 to 310
102 | CN(C)CCc1c[nH]c2cccc(O)c12 | 174
103 | O=C(O)CNC(=O)OCC1c2ccccc2-c2ccccc21 | 174 to 178
104 | CCCCSC(=Nc1cccnc1)SCc1ccc(C(C)(C)C)cc1 | 32

Row | Structure (SMILES) | melting point [°C]
105 | O=NN1NC(=O)CC1c1ccc(C2CC(=O)NN2N=O)cc1 (stereo not given) | 150
106 | O=C(Cl)c1cc2ccccc2n1S(=O)(=O)c1ccccc1 | 127 to 128
107 | CCOc1ccc(C(=O)C=CC(=O)O)cc1 | 140 to 144
108 | O=C(Cl)c1ccsc1Br | 61 to 62
109 | Cc1nc(S(=O)(=O)Cl)cn1C | 91 to 94
110 | COP(=O)(OC)c1ccccc1P(=O)(OC)OC | 81
111 | CCN(CCO)c1ccc(N=Nc2ccc([N+](=O)[O-])cc2Cl)cc1 | 133
112 | CC(=O)C(C(C)=O)=C1SCCCS1 | 91
113 | O=C1CCc2cccc3c2N1CC3 | 112
114 | CNC(=O)ON=C(SC)C(=O)N(C)C | 101
115 | C/C(=N\c1cc(C)ccc1O)c1c(O)c2ccccc2n(-c2ccccc2)c1=O | 251 to 252
116 | CCCCCCCCCCOc1c(OC)cc(C(N)=O)cc1OC | 122
117 | Cc1ccc(-n2cccc2C=O)cc1 | 48 to 50
118 | CC(C)OC(=O)C1=C(C(=O)O)C2c3ccccc3C1c1ccccc12 | 176
119 | COc1ccc(C(C=O)C=O)cc1 | 178 to 181
120 | CCc1cnc(C2=NC(C)(C(C)C)C(=O)N2)c(C(=O)O)c1 (stereo not given) | 171
121 | Oc1ncnc2[nH]cnc12 | 250
122 | CSC(SC)=C(C#N)C(=O)NCc1ccccc1 | 81
123 | CCCCCCCCCCCCCCCCCCCCCCCCO | 75 to 77
124 | CC1(C)OC(=O)c2ccccc21 | 70
125 | NNC(=O)CC(=O)NN | 154
126 | CC(=O)N(C(C)=O)c1cc([N+](=O)[O-])c(/C=C/c2ccccc2)c([N+](=O)[O-])c1/C=C/c1ccccc1 | 175
127 | CC(=S)Nc1ccccc1 | 77.5
128 | CNC(C)(C)C(=O)O | 300
129 | CCOC(O)C(OC(C)=O)C(OC(C)=O)C(OC(C)=O)C(COC(C)=O)OC(C)=O (stereo not given) | 132
130 | O=Cc1ccc(OCC(=O)O)cc1 | 198
